The values that follow come from US8435976B2, “4-substituted pyridin-3-yl-carboxamide compounds and methods of use” (F. Hoffmann-La Roche, priority 2009, dated 2013).

One assay concerns MM1.S cells. The assay can be described thus: MM1.S cell proliferation, 72 hours (Cell Titer Glo). The settings on record: Homo sapiens, 72 hours, read-out: Prolif MM1S ATP (EC50). The format is cell-based. A digest of the protocol: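 BaF3 parental cells (2 k/well, with 2 ng/mL mIL-3) were treated overnight, and MM1.S cells (10 k/well) were treated for 72 h at 37 °C. Viability was read by CellTiter-Glo luminescence. IC50/EC50 values were calculated from the luminescence data.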
(In general: Cellular ATP, detected with luciferase, serves as a proxy for viable cell number.)

The next assay addresses T1, PIM3 (Homo sapiens, UniProt Q86V86).
T1 construct: made in house
The assay can be described thus: Pim-3 kinase enzymatic assay (Caliper LC3000, FAM-Pimtide substrate). Type of assay: biochemical. Conditions: 55 pM PIM3, 10 μM ATP, 90 minutes; read-out: PIM3 LC3K (Ki).

The next assay has as its target BaF3 PIM2 cells (Homo sapiens, UniProt Q9P1W9). The assay can be described thus: BaF3 PIM2 cell proliferation (Cell Titer Glo). The format is cell-based. The settings on record: incubated overnight; read-out: Prolif BaF3_PIM2 (IC50). The protocol:
BaF3 parental line was obtained from the DSMZ repository. BaF3 lines transfected with PIM1 or PIM2 were generated. Mouse IL-3 was purchased from R&D Systems. G418 was purchased from Clontech. Media for BaF3 parental line contained RPMI, 10% FBS, 2 mM L-Glutamine, 2 ng/mL mIL-3. Media for BaF3 PIM1 & 2 lines contained RPMI, 10% FBS, 2 mM L-Glutamine, […]. Media for MM1.S line contained RPMI, 10% FBS, 2 mM L-Glutamine.
BaF3 parental cells, BaF3 PIM1 cells, BaF3 PIM2 cells, and MM1.S cells were seeded at 2 k/well, 5 k/well, 5 k/well, and 10 k/well respectively, in a 384-well plate, at 45 μL/well. Test compound was added at 5 μL/well. BaF3 cells (parental and transfected) were incubated overnight, while MM1.S cells were incubated for 72 hours at 37° C., 5% CO2. Cell Titer Glo Reagent (Promega) was added at 50 μL/well, the plates were incubated for 30 minutes, and their luminescence read on an HT Analyst. IC50/EC50 values for the test compound were calculated.

A further assay deals with BaF3 PIM1 cells (Homo sapiens, UniProt P11309). Kind of assay: BaF3 PIM1 cell proliferation (Cell Titer Glo). Type of assay: cell-based. Conditions: incubated overnight; read-out: Prolif BaF3_PIM1 (IC50).
The target of a further assay is T2, PIM1 (Homo sapiens, UniProt P11309).
T2 construct: made in house
Kind of assay: Pim-1 kinase enzymatic assay (Caliper LC3000, FAM-Pimtide substrate). Type of assay: biochemical. Conditions: 20 pM PIM1, 10 μM ATP, 90 minutes; read-out: PIM1 LC3K (Ki).

The target in a further assay is T3, PIM2 (Homo sapiens, UniProt Q9P1W9).
T3 construct: made in house
Kind of assay: Pim-2 kinase enzymatic assay (Caliper LC3000, FAM-Pimtide substrate). Type of assay: biochemical. The settings on record: 50 pM PIM2, 10 μM ATP, 90 minutes; read-out: PIM2 LC3K (Ki).

The term EC50 denotes the concentration needed to bring the measured effect to its halfway point. As usually defined, the Ki is the dissociation constant of the complex between target and ligand, obtained from inhibition or displacement.

Some results are limits rather than exact numbers.

Sequence of BaF3 PIM1 cells (P11309 whole entry, change not shown): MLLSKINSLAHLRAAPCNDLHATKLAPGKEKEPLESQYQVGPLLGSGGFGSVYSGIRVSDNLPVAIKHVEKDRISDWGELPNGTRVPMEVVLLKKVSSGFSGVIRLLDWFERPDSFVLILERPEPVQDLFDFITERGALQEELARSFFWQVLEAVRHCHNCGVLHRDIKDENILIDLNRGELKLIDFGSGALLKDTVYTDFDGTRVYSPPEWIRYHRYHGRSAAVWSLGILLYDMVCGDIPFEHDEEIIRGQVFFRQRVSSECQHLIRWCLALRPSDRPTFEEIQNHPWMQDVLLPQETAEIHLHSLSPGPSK
T2 sequence (P11309 whole entry): as the sequence (P11309 whole entry, change not shown) above
Sequence of BaF3 PIM2 cells (Q9P1W9 whole entry, change not shown): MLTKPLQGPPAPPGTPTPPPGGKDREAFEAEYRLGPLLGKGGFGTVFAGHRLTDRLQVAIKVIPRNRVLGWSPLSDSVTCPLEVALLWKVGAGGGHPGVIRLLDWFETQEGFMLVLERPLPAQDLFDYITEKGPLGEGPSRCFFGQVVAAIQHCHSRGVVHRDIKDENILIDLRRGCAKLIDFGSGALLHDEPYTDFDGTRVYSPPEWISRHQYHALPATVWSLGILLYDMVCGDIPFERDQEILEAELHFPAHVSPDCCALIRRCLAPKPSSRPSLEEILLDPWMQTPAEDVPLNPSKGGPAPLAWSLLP
T3 sequence (Q9P1W9 whole entry): as the sequence (Q9P1W9 whole entry, change not shown) above

For the molecule `Nc1sc(-c2cccc(Br)c2)nc1C(=O)Nc1cnccc1N1CCC[C@H](N)C1` [Example 6, (S)-5-amino-N-(4-(3-aminopiperidin-1-yl)pyridin-3-yl)-2-(3-bromophenyl)thiazole-4-carboxamide], in the assay on MM1.S cells, the concentration for a half-maximal effect (EC50) is 595 nM. Further, the values for the Ki on PIM3, on PIM1 and on PIM2 were 0.032 nM, 0.063 nM and 0.379 nM, respectively. The values for the GI50 at BaF3 PIM2 cells and at BaF3 PIM1 cells were 1400 nM and 117 nM, respectively.
As to `Nc1sc(-c2cc(Br)ccc2F)nc1C(=O)Nc1cnccc1N1CCC[C@H](N)C1` [Example 4, (S)-5-amino-N-(4-(3-aminopiperidin-1-yl)pyridin-3-yl)-2-(5-bromo-2-fluorophenyl)thiazole-4-carboxamide], in the assay with MM1.S cells, the half-maximal effective concentration (EC50) is 160 nM. The Ki at PIM3 came out at 0.026 nM; on PIM1 it was 0.023 nM; at PIM2 it was 0.154 nM. For the same molecule, the GI50 on BaF3 PIM2 cells is greater than 2500 nM; on BaF3 PIM1 cells it was 55.8 nM.
`Nc1sc(-c2ccccc2F)nc1C(=O)Nc1cnccc1N1CCC[C@H](N)C1` [Example 1, (S)-5-amino-N-(4-(3-aminopiperidin-1-yl)pyridin-3-yl)-2-(2-fluorophenyl)thiazole-4-carboxamide]: in the assay on MM1.S cells, the half-maximal effective concentration (EC50) was determined as 108 nM. For the same molecule, the inhibition constant (Ki) at PIM3 is 0.0156 nM; at PIM1, 0.0224 nM; at PIM2 it was 0.0671 nM. Moreover, the figures for the GI50 on BaF3 PIM2 cells and on BaF3 PIM1 cells were 1400 nM and 33.2 nM, respectively.
For `CC(C)NC(=O)c1ccc(F)c(-c2nc(C(=O)Nc3cnccc3N3CCC[C@@H](N)C3)c(N)s2)c1` [Example 53, (R)-5-amino-N-(4-(3-aminopiperidin-1-yl)pyridin-3-yl)-2-(2-fluoro-5-(isopropylcarbamoyl)phenyl)thiazole-4-carboxamide], the EC50 with MM1.S cells worked out at 660 nM. The Ki at PIM3 was found to be 0.146 nM; at PIM1, 0.208 nM; on PIM2, 0.839 nM. Moreover, the GI50 is 7600 nM at BaF3 PIM2 cells and 273 nM at BaF3 PIM1 cells.
For the molecule `Nc1sc(-c2cc(Cl)ccc2F)nc1C(=O)Nc1cnccc1N1CCC[C@H](N)C1` [Example 23, (S)-5-amino-N-(4-(3-aminopiperidin-1-yl)pyridin-3-yl)-2-(5-chloro-2-fluorophenyl)thiazole-4-carboxamide], the EC50 in the assay with MM1.S cells stood at 137 nM. The figures for the Ki on PIM3, on PIM1 and at PIM2 were 0.031 nM, 0.034 nM and 0.153 nM, respectively. Moreover, the figures for the GI50 at BaF3 PIM2 cells and at BaF3 PIM1 cells were 1800 nM and 2500 nM, respectively.
With `Cc1cccc(-c2nc(C(=O)Nc3cnccc3N3CCC[C@H](N)C3)c(N)s2)c1` [Example 31, (S)-5-amino-N-(4-(3-aminopiperidin-1-yl)pyridin-3-yl)-2-(3-tolylthiazole)-4-carboxamide], the EC50 in the assay with MM1.S cells is 1300 nM. For the same molecule, the inhibitory constant (Ki) at PIM3 turned out to be 0.023 nM; on PIM1, 0.0464 nM; on PIM2 it was 0.339 nM. Further, the GI50 on BaF3 PIM2 cells was 2300 nM; on BaF3 PIM1 cells it was 66.5 nM.
Regarding `Nc1sc(-c2cc(Br)ccc2Cl)nc1C(=O)Nc1cnccc1N1CCC[C@H](N)C1` [Example 5, (S)-5-amino-N-(4-(3-aminopiperidin-1-yl)pyridin-3-yl)-2-(5-bromo-2-chlorophenyl)thiazole-4-carboxamide], the 50% effective concentration (EC50) in the assay on MM1.S cells is 1500 nM. For the same molecule, the Ki was 0.05 nM at PIM3, 0.044 nM on PIM1 and 0.493 nM on PIM2. In addition, the GI50 on BaF3 PIM2 cells is 2800 nM; at BaF3 PIM1 cells, 300 nM.
As for `CCCCOc1ccc(F)c(-c2nc(C(=O)Nc3cnccc3N3CCC[C@H](N)C3)c(N)s2)c1F` [Example 28, (S)-5-amino-N-(4-(3-aminopiperidin-1-yl)pyridin-3-yl)-2-(3-butyloxy-2,6-difluorophenyl)thiazole-4-carboxamide], in the assay on MM1.S cells, the EC50 was 1900 nM. The inhibitory constant (Ki) at PIM3 is 0.118 nM; on PIM1, 0.102 nM; on PIM2, 0.434 nM. Moreover, the GI50 is 2800 nM at BaF3 PIM2 cells and 135 nM on BaF3 PIM1 cells.
Take `Nc1sc(-c2c(F)cccc2F)nc1C(=O)Nc1cnccc1Cl` [Example 17, 5-amino-N-(4-chloropyridin-3-yl)-2-(2,6-difluorophenyl)thiazole-4-carboxamide]: the 50% effective concentration (EC50) in the assay with MM1.S cells was greater than 20000 nM. The figures for the Ki on PIM3, on PIM1 and at PIM2 were 6.81 nM, 14 nM and 76.5 nM, respectively. The GI50 on BaF3 PIM2 cells and at BaF3 PIM1 cells was greater than 20000 nM each time.
Take `COc1cc(F)c(-c2nc(C(=O)Nc3cnccc3N3CCC[C@H](N)C3)c(N)s2)c(F)c1` [Example 34, (S)-5-amino-N-(4-(3-aminopiperidin-1-yl)pyridin-3-yl)-2-(2,6-difluoro-4-methoxyphenyl)thiazole-4-carboxamide]: the EC50 in the assay on MM1.S cells worked out at 56.8 nM. Besides, the Ki at PIM3 amounted to 0.022 nM; at PIM1, 0.012 nM; at PIM2, 0.0957 nM. In addition, the GI50 on BaF3 PIM2 cells is greater than 2500 nM; at BaF3 PIM1 cells, 19.1 nM.
Turning to `N[C@H]1CCCN(c2ccncc2NC(=O)c2csc(-c3ccccc3F)n2)C1` [Example 45, (S)-N-(4-(3-aminopiperidin-1-yl)pyridin-3-yl)-2-(2-fluorophenyl)thiazole-4-carboxamide], the concentration giving a half-maximal response (EC50) with MM1.S cells is 5500 nM. The inhibitory constant (Ki) on PIM3 amounted to 0.338 nM; at PIM1, 0.561 nM; at PIM2 it was 2.78 nM. The GI50 at BaF3 PIM2 cells stood at 12500 nM; on BaF3 PIM1 cells, 613 nM.
Take `Nc1sc(-c2ccc3nccn3c2)nc1C(=O)Nc1cnccc1N1CCC[C@H](N)C1` [Example 61, (S)-5-amino-N-(4-(3-aminopiperidin-1-yl)pyridin-3-yl)-2-(imidazo[1,2-a]pyridin-6-yl)thiazole-4-carboxamide]: the EC50 in the assay with MM1.S cells is 10400 nM. Besides, the inhibition constant (Ki) amounted to 1.01 nM at PIM3, 0.642 nM on PIM1 and 18.2 nM on PIM2. Besides, the values for the GI50 at BaF3 PIM2 cells and on BaF3 PIM1 cells were greater than 20000 nM and 7100 nM, respectively.
`CN(C)C(=O)c1ccc(F)c(-c2nc(C(=O)Nc3cnccc3N3CCC[C@H](N)C3)cs2)c1` [Example 47, (S)-N-(4-(3-aminopiperidin-1-yl)pyridin-3-yl)-2-(5-(dimethylcarbamoyl)-2-fluorophenyl)thiazole-4-carboxamide]: the half-maximal effective concentration (EC50) in the assay with MM1.S cells was greater than 20000 nM. The Ki is 2.11 nM on PIM3, 3.98 nM at PIM1 and 59.8 nM at PIM2. The GI50 is greater than 20000 nM on BaF3 PIM2 cells and 3900 nM on BaF3 PIM1 cells.
`Nc1sc(-c2ccccc2F)nc1C(=O)Nc1cnccc1N1C[C@@H](N)C[C@@H](F)C1` [Example 62, 5-amino-N-(4-((3S,5R)-3-amino-5-fluoropiperidin-1-yl)pyridin-3-yl)-2-(2-fluorophenyl)thiazole-4-carboxamide]: the half-maximal effective concentration (EC50) in the assay with MM1.S cells came out at 364 nM. Further, the inhibition constant (Ki) on PIM3 is 0.326 nM; on PIM1, 1.34 nM; on PIM2, 8.87 nM. In addition, the GI50 was 10400 nM on BaF3 PIM2 cells and 6000 nM on BaF3 PIM1 cells.
`COc1ccc(-c2nc(C(=O)Nc3cnccc3N3CCC[C@H](N)C3)c(N)s2)c(F)c1` [Example 35, (S)-5-amino-N-(4-(3-aminopiperidin-1-yl)pyridin-3-yl)-2-(2-fluoro-4-methoxyphenyl)thiazole-4-carboxamide]: in the assay with MM1.S cells, the EC50 was found to be 2300 nM. Besides, the inhibitory constant (Ki) at PIM3 came out at 1.13 nM; on PIM1 it was 0.709 nM; at PIM2 it was 5.28 nM. Moreover, the GI50 at BaF3 PIM2 cells came out at 2000 nM; on BaF3 PIM1 cells, 29.3 nM.
